Source: PubChem BioAssay (NCI)
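Compound exposure: 48 hours, 5 concentrations, 96-well plates. The concentration for full growth arrest is given as TGI.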

Key:
Assay in all cases: DTP human tumour cell line panel, 48 h
[1] = test system: COLO 205 colon
[2] = test system: TK-10 renal
[3] = test system: EKVX NSCLC
[4] = test system: SNB-78 CNS
[5] = test system: SN12C renal
[6] = test system: SK-MEL-28 melanoma
[7] = test system: IGROV1 ovarian
[8] = test system: HT29 colon
[9] = test system: HOP-62 NSCLC
[10] = test system: HCT-15 colon
[11] = test system: HCC-2998 colon
[12] = test system: OVCAR-3 ovarian
[13] = test system: RXF 393 renal
[14] = test system: SR leukemia
[15] = test system: MALME-3M melanoma
[16] = test system: HL-60(TB) leukemia
[17] = test system: 786-0 renal
[18] = test system: ACHN renal
[19] = test system: SW-620 colon
[20] = test system: NCI-H460 lung
[21] = test system: UO-31 renal
[22] = test system: HOP-92 NSCLC
[23] = test system: OVCAR-8 ovarian
[24] = test system: SK-OV-3 ovarian
[25] = test system: KM20L2 colon
[26] = test system: UACC-62 melanoma
[27] = test system: OVCAR-4 ovarian
[28] = test system: U251 CNS
[29] = test system: MOLT-4 leukemia
[30] = test system: LXFL 529 NSCLC
[31] = test system: SK-MEL-5 melanoma
[32] = test system: LOX IMVI melanoma
[33] = test system: NCI-H522 lung
[34] = test system: CAKI-1 renal
[35] = test system: DMS 273 small cell lung
[36] = test system: HOP-18 NSCLC
[37] = test system: UACC-257 melanoma
[38] = test system: HCT-116 colon
[39] = test system: M14 melanoma
[40] = test system: SF-295 CNS
[41] = test system: A498 renal
[42] = test system: SF-268 CNS
[43] = test system: SF-539 CNS
[44] = test system: SNB-19 CNS
[45] = test system: OVCAR-5 ovarian
[46] = test system: KM12 colon
[47] = test system: SNB-75 CNS
[48] = test system: M19-MEL melanoma
[49] = test system: CCRF-CEM leukemia
[50] = test system: DMS 114 small cell lung
[51] = test system: DLD-1 colon
[52] = test system: NCI-H226 lung
[53] = test system: RPMI-8226 leukemia
[54] = test system: A549 NSCLC
[55] = test system: SK-MEL-2 melanoma
[56] = test system: K-562 leukemia
[57] = test system: NCI-H23 lung
[58] = test system: XF 498 CNS

Measured: TGI

O=C1CC2C=CC1C2CO (stereo not drawn)
not listed: [55] | [56] | [57] | [58]
> 100 µM: all other assays above

O=C1c2ccccc2C(=O)c2c1ccc(O)c2O
55.3 µM: [26]
88.7 µM: [13]
69.2 µM: [47]
not listed: [4] | [15] | [16] | [24] | [25] | [31] | [36] | [50] | [54]
> 100 µM: all other assays above
